Experimental data reported in US20230097883A1, “ERGOTHIONEINE PET COMPOUNDS AND METHODS OF USE THEREOF” (VANDERBILT UNIVERSITY, priority 2021, published 2023).
“Also recorded” adds a separate entry of the source.

Key:
[1] = Ex-vivo cut-and-count whole-body biodistribution of I.V.-injected [11C]ERGO in WT mice; design: species or system mouse; details: pharmacokinetic study
[2] = Nickel assay: 2D-HPLC with nickel HisTrap column and His-tag antibodies; format: binding
Protocol: In principle, nickel is a transition metal like Fe, Cu and Zn. The nickel column can immobilize hexahistidine-tag (His-tag) recombinant proteins, such as recombinant antibodies harboring a His tag (His-Abs). In our experimental design, nickel forms a substantial coordination equilibrium with histidines via the imidazole ring structures to form a stable metal/ligand complex. This assay uses two different buffer reservoirs, a wash buffer (PBS) and an elution buffer (PBS containing 50 mM imidazole). To remove the His-Abs (14 KDa) from the nickel column, the washing buffer was switched to the elution buffer and the His-Abs dislodged from the column were detected by the 2D-HPLC (FIG. 3.1C, left). In a different phase of the experiment, the His-Abs solution was spiked with ERGO (14.5 mM) prior to injection into the HPLC system. […] The integrity of the eluted His-Abs was collected and confirmed by orbit trap mass spectrometry.
ERGO's metal-binding affinity was tested via a 2D-HPLC equipped with a nickel-based HisTrap HP column (Cytiva, Marlborough, Mass., USA). The 2D-HPLC was performed with a Hitachi LaChrom Elite L-2455 Diode Array Detector linked to a Hitachi L-2130 pump (Hitachi High-Technologies, Corp., Tokyo, Japan). […]

Abeta = test: [11C]PIB PET imaging of Abeta levels after ERGO treatment; format: in vivo, mouse
Protocol: To address our primary question whether longitudinal consumption of ERGO as a potent antioxidant benefit the brain, three cohorts of animals (n=12 non-treated WT control, n=12 non-treated 5XFAD, and n=18 ERGO-treated 5XFAD) were used (FIG. 3.2A). Starting at the age of 8 weeks, the animals were treated with high doses of ERGO solution (25-50 mg/Kg) formulated in double distilled (dd) water via oral gavage three times a week over the course of eight weeks. To reduce bias in the behavioral experiments with regard to the potential stress during gavage treatment, non-treated animals underwent the identical gavage process with the vehicle, water, only. The efficacy of the therapy was evaluated by behavioral testing, followed by three different non-invasive PET imaging sessions to assess biomarkers related to AD pathology. […]
Non-invasive, in vivo, and robust assessment of Abeta levels in the brains of treated and non-treated 5XFAD mice were performed using the [^11C]PIB PET probe, the chemical structure of which has been described elsewhere. […] We co-registered the PET/CT image to an MRI template for quantitative PET analysis of regional uptake in the brain. […]

| SMILES | time after injection at which the concentration in the serum started to decrease [1] [min] | elution of His-tag antibodies from the nickel column in the presence of ERGO ([2]; His-Abs solution spiked with ERGO 14.5 mM, PBS wash buffer) | elution of His-tag camelid antibodies from the nickel column in the presence of ERGO ([2]; antibody injected with addition of ERGO 50 nM, PBS mobile phase) | [11C]PIB PET signal in brain (Abeta; ERGO-treated 5XFAD, 4-month-old, n=7, ~15 MBq [11C]PIB) | [11C]PIB % ID/g higher in non-treated 5XFAD compared to treated counterparts, every brain subregion (Abeta; non-treated n=5 versus ERGO-treated n=7 5XFAD mice) |
| --- | --- | --- | --- | --- | --- |
| C[N+](C)([11CH3])[C@@H](Cc1c[nH]c(=S)[nH]1)C(=O)[O-] [[^11C]ERGO] | 10 |  |  |  |  |
| C[N+](C)(C)[C@@H](Cc1c[nH]c(=S)[nH]1)C(=O)[O-] [ERGO, L-ergothioneine] |  | eluted from the nickel column immediately by the wash buffer; also recorded: washed out immediately | Right at the beginning of the run, His-tag camelid antibodies were eluted | very weak, and resembled the background signal found in WT mice | 30-50% |
